No end group written: not given here.
Test system: ob/ob mouse model
Assay: Earlier study of OB3 and D-amino acid-substituted OB3 analogs: body weight gain, food and water intake, blood glucose
Assay type: in vivo
Conditions: mouse, in vivo
Description: Single-point D-amino acid substitution was used to study the structure-function relationships of each amino acid residue in OB3, and to increase its efficacy. The restricted domain represented by OB3 contains a functional epitope, which has the ability to mimic at least some of the effects of leptin on energy balance and glucose homeostasis.
The design of peptide ligands involved the introduction of conformational constraints into native sequences by techniques that include, but are not limited to, D-amino acid substitution or cyclization. (Hruby and Bonner, Methods Mol Biol. 35:201-40 (1994)). Systematic replacement of L-amino acids by their D-amino acid isoforms was used to determine the stereostructural requirements of specific residues in a peptide for peptide-receptor interaction, and to assess the contribution of certain secondary structural motifs, e.g., α-helix or β-turn, to the bioactivity of the peptide. (Hruby, Biopolymers 33(7):1073-82 (1993) and Hruby, Life Sci. 52(10):845-55 (1993)). This approach increased peptide resistance to enzymatic hydrolysis, and to enhance the properties of biologically active peptides, including receptor binding, functional potency, and duration of action. (See Fauchere et al., Adv. Drug Res., 23:127-139 (1992); Doherty et al., J. Med. Chem., 36:2585-2594 (1993); Kirby et al., J. Med. Chem., 36:3802-3808 (1993); Morita et al., FEBS Lett., 353:84-88 (1994)).
(See Rozhayskaya-Arena M, et al., Endocrinology 141:2501-2517 (2000); Grasso P et al., Regulatory Pep. 101:123-129 (2001)).

Substance: SCSLPQT [OB3, amino acid residues 116-122 of mouse leptin]
- maximal reduction of blood glucose levels: approximately 100 mg/dl

From patent US20110136728A1, “METHODS OF INCREASING BONE FORMATION USING LEPTIN-RELATED PEPTIDES” (priority 2009, published 2011)
